Experimental data as given in patent US7659297B2, “Tetrahydronaphthalene derivatives, process for their production and their use as anti-inflammatory agents” (Bayer Schering Pharma, AG, priority 2003, dated 2010).

Tests used:
[1] = target: T1, progesterone receptors (PR) (Homo sapiens, UniProt P06401); experiment: Binding to other steroid hormone receptors with recombinantly produced receptors: progesterone receptor
T1 construct: made in house
T1 sequence (P06401 1-933): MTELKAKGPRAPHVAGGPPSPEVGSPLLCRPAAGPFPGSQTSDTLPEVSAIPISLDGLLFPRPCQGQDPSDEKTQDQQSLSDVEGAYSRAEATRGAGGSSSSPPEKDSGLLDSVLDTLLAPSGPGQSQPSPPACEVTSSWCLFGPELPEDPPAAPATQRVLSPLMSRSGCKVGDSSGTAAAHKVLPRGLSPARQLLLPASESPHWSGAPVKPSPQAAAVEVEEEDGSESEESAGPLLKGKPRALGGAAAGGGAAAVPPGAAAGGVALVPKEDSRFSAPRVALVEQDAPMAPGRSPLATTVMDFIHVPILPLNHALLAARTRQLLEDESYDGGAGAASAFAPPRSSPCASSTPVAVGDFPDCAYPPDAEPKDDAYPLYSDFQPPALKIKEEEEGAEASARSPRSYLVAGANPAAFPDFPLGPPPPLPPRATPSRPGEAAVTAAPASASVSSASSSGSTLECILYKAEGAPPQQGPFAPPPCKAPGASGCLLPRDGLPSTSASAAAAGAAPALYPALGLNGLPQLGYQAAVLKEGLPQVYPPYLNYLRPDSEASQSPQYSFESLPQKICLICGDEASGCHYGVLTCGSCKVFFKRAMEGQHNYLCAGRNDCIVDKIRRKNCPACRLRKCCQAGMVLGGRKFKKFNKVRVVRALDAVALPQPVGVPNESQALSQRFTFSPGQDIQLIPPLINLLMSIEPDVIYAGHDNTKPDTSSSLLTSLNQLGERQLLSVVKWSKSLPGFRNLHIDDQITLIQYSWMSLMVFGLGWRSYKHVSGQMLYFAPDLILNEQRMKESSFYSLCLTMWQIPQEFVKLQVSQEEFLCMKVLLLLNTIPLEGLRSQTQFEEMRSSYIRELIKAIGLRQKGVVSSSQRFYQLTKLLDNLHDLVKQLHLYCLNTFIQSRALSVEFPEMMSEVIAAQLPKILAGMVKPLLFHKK
Source text: (§1) The binding of substances to the glucocorticoid receptor (GR) and other steroid hormone-receptors (mineral corticoid receptors (MR), progesterone receptors (PR) and androgen receptors (AR)) is examined with the aid of recombinantly produced receptors. Cytosol preparations of Sf9 cells, which had been infected with recombinant baculoviruses that code for the GR, are used for the binding tests. In comparison to the reference substance [^3H]-dexamethasone, the substances show a high affinity to the GR.

[2] = tested on: secretion of the cytokine IL-8, triggered by lipopolysaccharide (LPS), in the human monocyte cell line THP-1; experiment: Inhibition of LPS-triggered secretion of the cytokine IL-8 in THP-1 cells (ELISA of supernatant); format: cell-based; details: LPS-triggered IL-8 secretion
Procedure: The concentration of the cytokines was determined in the supernatant by means of commercially available ELISA kits.

[3] = target: T2, glucocorticoid receptor (GR) (Homo sapiens, UniProt P04150); experiment: Binding to the glucocorticoid receptor, recombinantly produced receptor, cytosol preparations of Sf9 cells, reference [3H]-dexamethasone; details: recombinant GR
T2 construct: made in house; host or cells: Sf9 cells infected with recombinant baculovirus (cytosol preparation)
T2 sequence (P04150 1-777): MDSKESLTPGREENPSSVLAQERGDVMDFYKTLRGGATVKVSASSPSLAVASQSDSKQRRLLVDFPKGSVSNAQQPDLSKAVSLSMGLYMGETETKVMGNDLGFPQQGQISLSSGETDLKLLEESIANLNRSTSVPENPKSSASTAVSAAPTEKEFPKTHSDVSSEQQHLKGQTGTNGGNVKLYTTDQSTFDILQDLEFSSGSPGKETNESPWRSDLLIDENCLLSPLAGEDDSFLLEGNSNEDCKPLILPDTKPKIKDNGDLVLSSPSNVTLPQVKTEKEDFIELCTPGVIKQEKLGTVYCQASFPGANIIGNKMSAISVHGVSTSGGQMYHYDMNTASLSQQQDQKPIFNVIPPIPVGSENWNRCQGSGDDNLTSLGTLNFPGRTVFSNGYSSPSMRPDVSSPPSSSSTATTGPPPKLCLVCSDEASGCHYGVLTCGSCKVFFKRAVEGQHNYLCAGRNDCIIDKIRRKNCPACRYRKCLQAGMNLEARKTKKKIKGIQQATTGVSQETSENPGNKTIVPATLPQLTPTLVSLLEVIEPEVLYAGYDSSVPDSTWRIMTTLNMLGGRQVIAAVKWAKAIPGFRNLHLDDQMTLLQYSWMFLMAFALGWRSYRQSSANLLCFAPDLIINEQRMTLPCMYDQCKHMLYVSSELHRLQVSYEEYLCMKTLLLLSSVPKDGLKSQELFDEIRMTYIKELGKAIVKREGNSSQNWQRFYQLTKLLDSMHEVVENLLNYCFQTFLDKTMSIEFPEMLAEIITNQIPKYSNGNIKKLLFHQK
Source text: as §1

For `Cc1ncc2c(NC3c4cc(C)c(F)c(O)c4C(C)(C)CC3(O)C(F)(F)F)ccc(F)c2n1` (racemic) [Example 285, 6-Fluoro-1-[(8-fluoro-2-methylquinazolin-5-yl)amino]-4,4,7-trimethyl-2-(trifluoromethyl)-1,2,3,4-tetrahydronaphthalene-2,5-diol], the IC50 [1] was over 1000 nM, the IC50 ([2]; Homo sapiens, read-out: inhibition IC50(IL8)) was 40 nM and the “eff (IL8 inhibition)” value [2] was 79%. For the same compound, the IC50 [3] was 86 nM.
